Assay results: patent publication US11655235B2, “Pyrrolidine and piperidine compounds” (YUHAN CORPORATION, priority 2019, dated 2023)

Key:
[1] = molecular target: T1, Recombinant human FAP (Homo sapiens, UniProt Q12884); test: FAP FRET assay, FGF21-sequence FRET peptide substrate; format: biochemical; details: FRET peptide with human FGF21 sequence, 6 μM, 37° C.
T1 construct: purchased R&D systems
T1 sequence (Q12884 1-760): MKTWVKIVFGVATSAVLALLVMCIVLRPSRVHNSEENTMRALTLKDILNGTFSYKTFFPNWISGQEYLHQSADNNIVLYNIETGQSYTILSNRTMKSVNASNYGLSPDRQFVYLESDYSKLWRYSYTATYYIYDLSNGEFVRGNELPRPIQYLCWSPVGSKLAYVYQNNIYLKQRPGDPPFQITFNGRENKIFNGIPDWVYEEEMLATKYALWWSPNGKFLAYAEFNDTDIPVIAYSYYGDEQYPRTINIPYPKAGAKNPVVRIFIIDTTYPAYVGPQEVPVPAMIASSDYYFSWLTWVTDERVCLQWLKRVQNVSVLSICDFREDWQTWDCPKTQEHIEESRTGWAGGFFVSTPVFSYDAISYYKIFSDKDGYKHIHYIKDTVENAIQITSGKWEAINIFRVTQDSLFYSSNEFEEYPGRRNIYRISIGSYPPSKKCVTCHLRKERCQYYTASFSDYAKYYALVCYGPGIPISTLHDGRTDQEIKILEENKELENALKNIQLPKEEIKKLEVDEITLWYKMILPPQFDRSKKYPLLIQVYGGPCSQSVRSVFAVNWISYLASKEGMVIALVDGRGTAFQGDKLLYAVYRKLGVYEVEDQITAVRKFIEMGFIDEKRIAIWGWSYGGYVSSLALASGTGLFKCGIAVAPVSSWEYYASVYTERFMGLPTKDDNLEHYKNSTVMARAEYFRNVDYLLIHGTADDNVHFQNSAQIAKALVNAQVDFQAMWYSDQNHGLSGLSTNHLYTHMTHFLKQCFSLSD
Description: The compounds according to the present technology were evaluated in terms of the inhibitory effect on the activity of dipeptidyl peptidases including FAP by using a substrate producing fluorescent substances upon enzymatic decomposition. The test was conducted at 25° C. to get a final reaction volume of 100 μL in a 96 black well plate. […] Briefly, the test compounds were dissolved in dimethyl sulfoxide (DMSO) at a concentration of 20 mM and then subjected to serial dilution, thereby creating an 8 point curve. As for the control group, a 6 point curve created by serial dilution of Talabostat in the same buffer solution was used. Fluorescence intensity was measured using a microplate reader (Flexstation3, Molecular Devices) under the wavelength condition exciting at 380 nm and reading the emission at 460 nm. The inhibitory effect of the test compounds was measured as a decrease (%) in the signal rate as compared to the control group without any inhibitor. Data was fixed to a logistic model with four variables and IC50 value was calculated using GraphPad Prism program. For the FAP FRET assay, recombinant human FAP (R&D systems) was diluted with 50 mM HEPES (pH 7.2) buffer comprising 150 mM of sodium chloride, 0.1 mg/ml of bovine serum albumin (BSA) and 1 mM EDTA to be 10 ng per final reaction. The test compounds were subjected to serial dilution in a buffer under the condition containing up to 0.1% of DMSO. FRET peptides containing human FGF21 sequence ([…]) conjugated with HyLite Fluor 488 and dark quencher QXL 520 (Anaspec) was used as a substrate. By dissolving in DMSO and then diluting in the same buffer, the substrate was added to be 6 μM per final reaction. All reactions of FRET assay was conducted at 37° C.

[2] = molecular target: DPP4 (Homo sapiens, UniProt P27487); test: DPP4 inhibition, fluorogenic substrate H-Gly-Pro-AMC; format: biochemical; parameters: purchased R&D Systems; details: recombinant human DPP4
DPP4, sequence (P27487 whole entry): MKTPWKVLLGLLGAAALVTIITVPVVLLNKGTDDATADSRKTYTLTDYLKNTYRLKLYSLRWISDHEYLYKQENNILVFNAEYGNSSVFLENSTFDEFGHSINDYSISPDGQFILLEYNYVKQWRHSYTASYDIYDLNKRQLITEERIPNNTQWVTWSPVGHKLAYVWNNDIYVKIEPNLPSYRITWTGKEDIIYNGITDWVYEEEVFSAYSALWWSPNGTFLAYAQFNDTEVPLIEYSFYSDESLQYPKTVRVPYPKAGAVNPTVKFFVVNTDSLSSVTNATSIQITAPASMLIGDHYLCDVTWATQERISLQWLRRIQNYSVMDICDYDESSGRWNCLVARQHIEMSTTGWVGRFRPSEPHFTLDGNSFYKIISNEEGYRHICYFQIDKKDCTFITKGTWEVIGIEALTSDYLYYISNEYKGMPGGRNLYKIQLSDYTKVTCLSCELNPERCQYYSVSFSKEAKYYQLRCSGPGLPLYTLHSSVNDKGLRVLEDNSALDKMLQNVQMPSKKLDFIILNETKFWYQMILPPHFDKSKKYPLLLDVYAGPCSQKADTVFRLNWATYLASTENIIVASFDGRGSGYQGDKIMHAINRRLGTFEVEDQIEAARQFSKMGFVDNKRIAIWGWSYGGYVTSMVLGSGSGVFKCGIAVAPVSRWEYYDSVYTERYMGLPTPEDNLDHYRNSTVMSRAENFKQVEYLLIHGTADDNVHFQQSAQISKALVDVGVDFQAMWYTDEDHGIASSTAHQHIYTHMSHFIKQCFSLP

SMILES | IC50 [1] | IC50 [2]
CN(c1cc(F)cc2ncccc12)[C@H]1CCN(CC(=O)N2C[C@@H](F)C[C@H]2C#N)C1 [Example 157, (2S,4S)-4-fluoro-1-(2-((S)-3-((7-fluoroquinolin-5-yl)(methyl)amino)pyrrolidin-1-yl)acetyl)pyrrolidine-2-carbonitrile] | 20.2 nM | 2160 nM
COc1ccc2ncccc2c1N[C@@H]1CCN(CC(=O)N2C[C@@H](F)C[C@H]2C#N)C1 [Example 176, (2S,4S)-4-fluoro-1-[2-[(3R)-3-[(6-methoxy-5-quinolyl)amino]pyrrolidin-1-yl]acetyl]pyrrolidine-2-carbonitrile] | 22.2 nM | 1510 nM
Cc1ccc2nccc(N[C@@H]3CCN(CC(=O)N4C[C@@H](F)C[C@H]4C#N)C3)c2c1 [Example 187, (2S,4S)-4-fluoro-1-[2-[(3R)-3-[(6-methyl-4-quinolyl)amino]pyrrolidin-1-yl]acetyl]pyrrolidine-2-carbonitrile] | 23.9 nM | 17600 nM
COc1ccc2nccc(N[C@@H]3CCN(CC(=O)N4C[C@@H](F)C[C@H]4C#N)C3)c2c1 [Example 188, (2S,4S)-4-fluoro-1-[2-[(3R)-3-[(6-methoxy-4-quinolyl)amino]pyrrolidin-1-yl]acetyl]pyrrolidine-2-carbonitrile] | 21.5 nM | 15200 nM
N#C[C@@H]1C[C@H](F)CN1C(=O)CN1CC[C@@H](Nc2ccnc3ccc(F)cc23)C1 [Example 191, (2S,4S)-4-fluoro-1-[2-[(3R)-3-[(6-fluoro-4-quinolyl)amino]pyrrolidin-1-yl]acetyl]pyrrolidine-2-carbonitrile] | 19.4 nM | 3220 nM
N#C[C@@H]1C[C@H](F)CN1C(=O)CN1CC[C@@H](Nc2ccnc3ccc(Cl)cc23)C1 [Example 192, (2S,4S)-4-fluoro-1-[2-[(3R)-3-[(6-chloro-4-quinolyl)amino]pyrrolidin-1-yl]acetyl]pyrrolidine-2-carbonitrile] | 15.6 nM | 5560 nM
COc1ccc2c(N[C@@H]3CCN(CC(=O)N4C[C@@H](F)C[C@H]4C#N)C3)ccnc2c1 [Example 193, (2S,4S)-4-fluoro-1-[2-[(3R)-3-[(7-methoxy-4-quinolyl)amino]pyrrolidin-1-yl]acetyl]pyrrolidine-2-carbonitrile] | 24.4 nM | 9090 nM
N#C[C@@H]1C[C@H](F)CN1C(=O)CN1CC[C@@H](Nc2ccnc3c(F)cccc23)C1 [Example 194, (2S,4S)-4-fluoro-1-[2-[(3R)-3-[(8-fluoro-4-quinolyl)amino]pyrrolidin-1-yl]acetyl]pyrrolidine-2-carbonitrile] | 10.9 nM | 19600 nM
COc1cccc2c(N[C@@H]3CCN(CC(=O)N4C[C@@H](F)C[C@H]4C#N)C3)ccnc12 [Example 195, (2S,4S)-4-fluoro-1-[2-[(3R)-3-[(8-methoxy-4-quinolyl)amino]pyrrolidin-1-yl]acetyl]pyrrolidine-2-carbonitrile] | 21.7 nM | 14100 nM
N#C[C@@H]1C[C@H](F)CN1C(=O)CN1CC[C@@H](Nc2ccnc3c(C(F)(F)F)cccc23)C1 [Example 196, (2S,4S)-4-fluoro-1-[2-[(3R)-3-[[8-(trifluoromethyl)-4-quinolyl]amino]pyrrolidin-1-yl]acetyl]pyrrolidine-2-carbonitrile] | 7.4 nM | 3840 nM
N#C[C@@H]1CCCN1C(=O)CN1CC[C@@H](Nc2ccc3nc(C(F)(F)F)ccc3c2)C1 [Example 217, (2S)-1-[2-[(3R)-3-[[2-(trifluoromethyl)-6-quinolyl]amino]pyrrolidin-1-yl]acetyl]pyrrolidine-2-carbonitrile] | 8.8 nM | 29000 nM
Cc1cnc2ccc(N[C@@H]3CCN(CC(=O)N4CCC[C@H]4C#N)C3)cc2c1 [Example 218, (2S)-1-[2-[(3R)-3-[(3-methyl-6-quinolyl)amino]pyrrolidin-1-yl]acetyl]pyrrolidine-2-carbonitrile] | 26.6 nM | 17300 nM
COc1ccnc2ccc(N[C@@H]3CCN(CC(=O)N4CCC[C@H]4C#N)C3)cc12 [Example 219, (2S)-1-[2-[(3R)-3-[(4-methoxy-6-quinolyl)amino]pyrrolidin-1-yl]acetyl]pyrrolidine-2-carbonitrile] | 16.8 nM | 13000 nM
Cc1cc(N[C@@H]2CCN(CC(=O)N3CCC[C@H]3C#N)C2)cc2cccnc12 [Example 220, (2S)-1-[2-[(3R)-3-[(8-methyl-6-quinolyl)amino]pyrrolidin-1-yl]acetyl]pyrrolidine-2-carbonitrile] | 5.7 nM | 13200 nM
N#C[C@@H]1CCCN1C(=O)CN1CC[C@@H](Nc2cc(F)c3ncccc3c2)C1 [Example 221, (2S)-1-[2-[(3R)-3-[(8-fluoro-6-quinolyl)amino]pyrrolidin-1-yl]acetyl]pyrrolidine-2-carbonitrile] | 7.5 nM | 11100 nM
N#C[C@@H]1CCCN1C(=O)CN1CC[C@@H](Nc2cc(Cl)c3ncccc3c2)C1 [Example 222, (2S)-1-[2-[(3R)-3-[(8-chloro-6-quinolyl)amino]pyrrolidin-1-yl]acetyl]pyrrolidine-2-carbonitrile] | 2.1 nM | 11800 nM
Cc1ccc2nccc(N[C@@H]3CCN(CC(=O)N4CCC[C@H]4C#N)C3)c2c1 [Example 223, (2S)-1-[2-[(3R)-3-[(6-methyl-4-quinolyl)amino]pyrrolidin-1-yl]acetyl]pyrrolidine-2-carbonitrile] | 13.1 nM | 92500 nM
COc1ccc2nccc(N[C@@H]3CCN(CC(=O)N4CCC[C@H]4C#N)C3)c2c1 [Example 224, (2S)-1-[2-[(3R)-3-[(6-methoxy-4-quinolyl)amino]pyrrolidin-1-yl]acetyl]pyrrolidine-2-carbonitrile] | 10 nM | 54200 nM
N#C[C@@H]1CCCN1C(=O)CN1CC[C@@H](Nc2ccnc3ccc(F)cc23)C1 [Example 225, (2S)-1-[2-[(3R)-3-[(6-fluoro-4-quinolyl)amino]pyrrolidin-1-yl]acetyl]pyrrolidine-2-carbonitrile] | 7.2 nM | 34200 nM
N#C[C@@H]1CCCN1C(=O)CN1CC[C@@H](Nc2ccnc3ccc(Cl)cc23)C1 [Example 226, (2S)-1-[2-[(3R)-3-[(6-chloro-4-quinolyl)amino]pyrrolidin-1-yl]acetyl]pyrrolidine-2-carbonitrile] | 4.8 nM | 37900 nM
N#C[C@@H]1CCCN1C(=O)CN1CC[C@@H](Nc2ccnc3c(F)cccc23)C1 [Example 227, (2S)-1-[2-[(3R)-3-[(8-fluoro-4-quinolyl)amino]pyrrolidin-1-yl]acetyl]pyrrolidine-2-carbonitrile] | 7.2 nM | 31700 nM
N#C[C@@H]1C[C@H](F)CN1C(=O)CN1CC[C@H](Nc2cnc3ncccc3c2)C1 [Example 272, (2S,4S)-4-fluoro-1-[2-[(3S)-3-(1,8-naphthyridin-3-ylamino)pyrrolidin-1-yl]acetyl]pyrrolidine-2-carbonitrile] | 16.3 nM | 2800 nM
N#C[C@@H]1C[C@H](F)CN1C(=O)CN1CC[C@H](Nc2cnc3nc(Cl)ccc3c2)C1 [Example 273, (2S,4S)-4-fluoro-1-[2-[(3S)-3-[(7-chloro-1,8-naphthyridin-3-yl)amino]pyrrolidin-1-yl]acetyl]pyrrolidine-2-carbonitrile] | 19 nM | 530 nM
N#C[C@@H]1CCCN1C(=O)CN1CCC(Nc2cccc3ncc(C(F)(F)F)cc23)CC1 [Example 387, (2S)-1-[2-[4-[[3-(trifluoromethyl)-5-quinolyl]amino]-1-piperidyl]acetyl]pyrrolidine-2-carbonitrile] | 32.4 nM | 
